Results reported in article PMC2106221 (The Journal of Cell Biology, 1963).
Read-outs that look alike come from different tables or passages of the source.

How the values were obtained:
[1] = system: trypsin-like amidase and esterase activity in human mast cells (mast cell enzyme(s)); assay type: biochemical; conditions: for time to observable mast cells at theoretical Vm: from the Lineweaver-Burk plot; for time for the demonstration of mast cells: optimal substrate concentration; for time required for the appearance of visible mast cells, mean: double-blind
[2] = molecular target: T1, bovine trypsin (crystalline) (Bos taurus, UniProt P00760); assay type: biochemical; conditions: for Percentage inhibition 5 min.: DL-BANA 0.60 mM, enzyme 10 μg/ml
T1 sequence (P00760 24-246): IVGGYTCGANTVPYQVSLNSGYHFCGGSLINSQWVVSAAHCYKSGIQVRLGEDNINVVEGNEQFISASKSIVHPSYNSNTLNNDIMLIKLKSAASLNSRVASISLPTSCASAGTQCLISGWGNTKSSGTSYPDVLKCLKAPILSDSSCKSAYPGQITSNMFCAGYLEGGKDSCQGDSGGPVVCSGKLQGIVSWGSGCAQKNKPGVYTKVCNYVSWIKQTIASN

[3] = spontaneous hydrolysis of ester substrate in water/buffer; assay type: physicochemical
chymotrypsin = conditions: pH 7.2 ref 2; cited from earlier work
canine mast cells = test: histochemical reaction in canine skin sections; assay type: biochemical, dog; conditions: incubation period of 1 hour
[4] = diazonium coupling velocity in test tube, spectrophotometric half-reaction times; assay type: physicochemical
[5] = molecular target: T1, bovine trypsin (crystalline); conditions: trypsin 4 X pancreatin (Nutritional Biochemical Corporation) ref 1; cited from earlier work
[6] = Lineweaver-Burk plot, human mast cells

Cc1ccccc1NC(=O)c1cc2ccccc2cc1OC(=O)CCCCCN [EACA-AS-D, Naphthol AS-D ε-aminocaproate]
results as substrate compared with EACA-AS ([1]; both biochemical and histochemical studies): essentially the same results as EACA-AS

NCCCCCC(=O)Oc1cc2ccccc2cc1C(=O)Nc1ccccc1 [EACA-AS, Naphthol AS ε-aminocaproate]
substrate concentration at approximately half-maximal velocity ([1]; human mast cells, Fig. 7): ~7 #M
substrate concentration at approximately 50 per cent of the reaction velocity ([2]; trypsin, velocity calculated from the Lineweaver-Burk plot): ~20 /ZM
spontaneous hydrolysis in water ([3]; pH 5-6): insignificant
mean substrate concentration during spontaneous hydrolysis ([3]; pH 7.2, during 20 minutes): 92 per cent of the original concentration
mean substrate concentration during spontaneous hydrolysis ([3]; pH 7.2, during 30 minutes): 90 per cent of the original concentration
mean substrate concentration during spontaneous hydrolysis ([3]; pH 7.2, during the first 10 minutes): 95 per cent of the original concentration
hydrolysis by chymotrypsin relative to that of trypsin (chymotrypsin): about 10 per cent

Cl.NCCCCC(NC(=O)c1ccccc1)C(=O)Nc1ccc2ccccc2c1 (racemic) [DL-BLyNA, benzoyl-DL-lysine β-naphthylamide hydrochloride]
time to observable mast cells at theoretical Vm [1]: 2 min
time for the demonstration of mast cells ([1]; human mast cells): 5 to 6 min
reaction in canine mast cells (canine mast cells): No reaction

Cl.N=C(N)NCCCC(NC(=O)c1ccccc1)C(=O)Nc1ccc2ccccc2c1 (racemic) [DL-BANA, benzoyl-DL-arginine β-naphthylamide hydrochloride]
time required for the appearance of visible mast cells, mean ([1]; Experiment 1, DL-BANA 0.12 mM): 7.0 min
time required for the appearance of visible mast cells, mean ([1]; Experiment 2, DL-BANA 0.050 mM): 15.9 min
time to observable mast cells at theoretical Vm [1]: 2 min
time for the demonstration of mast cells ([1]; human mast cells): 5 to 6 min
Vm ([2]; in the absence of Garnet GBC): 50 mμM β-naphthylamine liberated
Vm ([2]; in the presence of Garnet GBC): 30 mμM β-naphthylamine liberated

Cl.N=C(N)NCCC[C@@H](NC(=O)c1ccccc1)C(=O)Nc1ccc2ccccc2c1 [D-BANA, benzoyl-D-arginine β-naphthylamide hydrochloride]
nature of inhibition of DL-BANA hydrolysis [1, 6]: competitive inhibitor
hydrolysis in the mast cells ([1]; tested as substrate): not hydrolyzed
nature of inhibition of tryptic hydrolysis of L-BANA [2]: competitive inhibitor
substrate for trypsin [2]: not a substrate for trypsin

COC(=O)[C@H](CCCNC(=N)N)NC(=O)c1ccccc1 [BAME, benzoyl-L-arginine methyl ester, reference compound]
nature of inhibition of DL-BANA hydrolysis [1, 6]: competitive
nature of inhibition of EACA-AS hydrolysis [1, 6]: competitive inhibitor

Nc1ccc2ccccc2c1 [β-naphthylamine]
Half-reaction time of coupling with Garnet GBC ([4]; Garnet GBC 0.70 mg/ml, presence of Tween 20): 7 s
Half-reaction time of coupling with Garnet GBC ([4]; Garnet GBC 0.70 mg/ml, presence of albumin): 48 s
Half-reaction time of coupling with Garnet GBC ([4]; Garnet GBC 0.70 mg/ml, water, pH 7.2): 93 s
Half-reaction time of coupling with Garnet GBC ([4]; Garnet GBC 1.40 mg/ml, presence of Tween 20): 4 s
Half-reaction time of coupling with Garnet GBC ([4]; Garnet GBC 1.40 mg/ml, presence of albumin): 23 s
Half-reaction time of coupling with Garnet GBC ([4]; Garnet GBC 1.40 mg/ml, water, pH 7.2): 42 s

NC(=O)[C@H](CCCN=C(N)N)NC(=O)c1ccccc1 [BAA, benzoyl-L-arginine amide, reference compound]
nature of inhibition of DL-BANA hydrolysis [1, 6]: competitive
nature of inhibition of DL-BLyNA hydrolysis ([1]; human mast cells): competitive

Cc1ccccc1N=Nc1ccc([N+]#N)c(C)c1 [Garnet GBC]
Percentage inhibition 5 min. ([2]; Garnet GBC 0.05 mg/ml): 4.7%
Percentage inhibition 5 min. ([2]; Garnet GBC 0.10 mg/ml): 13.2%
Percentage inhibition 5 min. ([2]; Garnet GBC 0.20 mg/ml): 16.5%
Percentage inhibition 5 min. ([2]; Garnet GBC 0.40 mg/ml): 20.1%
Percentage inhibition 5 min. ([2]; Garnet GBC 2.00 mg/ml): 35.0%
nature of inhibition of tryptic DL-BANA hydrolysis ([2]; Lineweaver-Burk plot): uncompetitive inhibition
inhibition of Vm of DL-BANA hydrolysis by the diazonium salt ([2]; from Lineweaver-Burk plot, Fig. 6): about 40 per cent
change of hydrolysis rate after preincubation with diazonium salt ([2]; preincubation of 60 minutes prior to the addition of substrate): no more than 15 per cent
inhibition of DL-BANA hydrolysis [5]: Up to 75 per cent
